Test results as given in article PMC5384453, “A multi-functional PEGylated gold(III) compound: potent anti-cancer properties and self-assembly into nanostructures for drug co-delivery” (Chemical Science, 2016).
Read-outs that look alike come from different tables or passages of the source.

Legend:
[1] = tested on: NCI-H460; test: In vitro cytotoxicity, MTT assay; format: cell-based, human; settings: for Toxicity toward cancer cells compared to that toward CCD-19Lu cells, NCI-H460: IC50 of CCD-19Lu cells / IC50 of NCI-H460; for Toxicity toward cancer cells compared to that toward MIHA cells, NCI-H460: IC50 of MIHA cells / IC50 of NCI-H460; for Toxicity toward cancer cells compared to that toward NCM460 cells, NCI-H460: IC50 of NCM460 cells / IC50 of NCI-H460; for IC50: NCI-H460, MTT assay, 72 h incubation
Method: (§1) In vitro cytotoxicity assays. HeLa, NCI-H460, HCT116, A2780, A2780cis and
(§2) cells), respectively, were seeded in 96-well plates for 24 h. The cells were then treated with a serial concentration of gold(III) complexes and incubated at 37 °C under a 5% CO2 atmosphere for 72 h. For nanostructures of 1, 2 and NC1, they were dissolved in
(§3) cisplatin were dissolved in culture medium-DMSO solution mixture (99:1, v/v).
(§4) After incubation for 72 h, MTT in PBS solution (5 mg/mL, 10 μL) was added to each well. The plates were incubated at 37 °C under a 5% CO2 atmosphere for another 4 h, and the cells were lysed by the addition of SDS solution (10%, w/w) with 0.01 M HCl (100 μL). After incubation in dark at 37 °C overnight, the cell viability after treatment was determined by a microtitre plate reader monitoring at the absorbance at 590 nm,

[2] = tested on: HCT116 cells; test: Hydrolysis in live cells, UPLC-QTOF-MS of cell lysates; format: in vitro ADME, human; settings: 2 μM, 24 h
Method: Hydrolysis of the gold(III) complexes in live cells was examined by ultra-performance liquid chromatography coupled quadrupole-time-of-flight mass spectrometry (UPLC-QTOF-MS). Colon cancer cells (HCT116) were treated with 1, 2 and 3 (2 μM) for 24 h, harvested and lysed in an acetonitrile–water solution mixture (3 : 1, v/v) prior to UPLC-QTOF-MS analysis. […] Therefore, the peak is attributable to the major metabolite of 1 formed in HCT116 cells. […] This should be attributable to the higher stability of the amide bond versus the ester bond in vitro. […]
which reflected the amount of blue formazan formed. IC50 values were then determined by CompuSyn S6 from three independent measurements.
Study on the release of hydrolyzed product from 1 and 2 in aqueous buffer solutions by ICP-MS. The nanostructures of gold(III) complex was dissolved in PBS solution (pH 7.4; 1 mg/mL) or sodium acetate buffer solution (pH 4.0; 1 mg/mL) and was dialyzed against 1 L of the buffer solution at 37 °C using semipermeable minidialysis tubes (molecular weight cut-off = 1,000 Da; GE Healthcare). At a predetermined time, an aliquot of solution was removed and dissolved in HNO3/HCl solution mixture (9:1, v/v; volume of aliquot: volume of acid mixture = 1:3). The solution mixture was heated at 65 °C with shaking overnight, and the gold content was determined by ICP-MS from three independent aliquots.
Study on the hydrolysis of 1 and 2 in aqueous buffer solutions by 1H NMR. […]
The flow rate was 0.4 mL/min and the injection volume was 2 µL. The UPLC-QTOF-MS chromatograms of 1, 3, 4 and solvent control in acetonitrile were also recorded for the interpretation of UPLC-QTOF-MS chromatograms of the cell lysate. […]
Au1a (2 µM; with 1 vol% DMSO). […] An aliquot of the cell suspension was subjected to Bio-rad protein assay with a microtitre plate reader at the absorbance at 595 nm, using bovine serum albumin as the protein standard. […] The solution mixture was heated at 65 °C with shaking overnight, and the gold content was determined by ICP-MS. […]

[3] = tested on: NCM460; test: In vitro cytotoxicity, MTT assay; format: cell-based, human; settings: 72 h incubation
Method: as §1, §2, §3, §4

[4] = tested on: HCT116; test: In vitro cytotoxicity, MTT assay; format: cell-based, human; settings: for IC50: HCT116, MTT assay, 72 h incubation; for Toxicity toward cancer cells compared to that toward CCD-19Lu cells, HCT-116: IC50 of CCD-19Lu cells / IC50 of HCT-116; for Toxicity toward cancer cells compared to that toward MIHA cells, HCT-116: IC50 of MIHA cells / IC50 of HCT-116; for Toxicity toward cancer cells compared to that toward NCM460 cells, HCT-116: IC50 of NCM460 cells / IC50 of HCT-116
Method: as §1, §2, §3, §4

[5] = tested on: CCD-19Lu; test: In vitro cytotoxicity, MTT assay; format: cell-based, human; settings: 72 h incubation
Method: as §1, §2, §3, §4

[6] = tested on: A2780adr; test: In vitro cytotoxicity, MTT assay; format: cell-based, human; settings: for IC50: A2780adr; for Resistance found in A2780adr: IC50 of A2780adr cells / IC50 of A2780 cells; for Toxicity toward cancer cells compared to that toward CCD-19Lu cells, A2780adr: IC50 of CCD-19Lu cells / IC50 of A2780adr; for Toxicity toward cancer cells compared to that toward MIHA cells, A2780adr: IC50 of MIHA cells / IC50 of A2780adr; for Toxicity toward cancer cells compared to that toward NCM460 cells, A2780adr: IC50 of NCM460 cells / IC50 of A2780adr
Method: as §1, §2, §3, §4

[7] = tested on: A2780; test: In vitro cytotoxicity, MTT assay; format: cell-based, human; settings: for IC50: A2780, MTT assay, 72 h incubation; for Toxicity toward cancer cells compared to that toward CCD-19Lu cells, A2780: IC50 of CCD-19Lu cells / IC50 of A2780; for Toxicity toward cancer cells compared to that toward NCM460 cells, A2780: IC50 of NCM460 cells / IC50 of A2780; for Toxicity toward cancer cells compared to that toward MIHA cells, A2780: IC50 of MIHA cells / IC50 of A2780
Method: as §1, §2, §3, §4

[8] = tested on: A2780cis; test: In vitro cytotoxicity, MTT assay; format: cell-based, human; settings: for IC50: A2780cis, MTT assay, 72 h incubation; for Resistance found in A2780cis: IC50 of A2780cis cells / IC50 of A2780 cells; for Toxicity toward cancer cells compared to that toward CCD-19Lu cells, A2780cis: IC50 of CCD-19Lu cells / IC50 of A2780cis; for Toxicity toward cancer cells compared to that toward NCM460 cells, A2780cis: IC50 of NCM460 cells / IC50 of A2780cis
Method: as §1, §2, §3, §4

[9] = tested on: MIHA; test: In vitro cytotoxicity, MTT assay; format: cell-based
Method: as §1, §2, §3, §4

[10] = tested on: HeLa; test: In vitro cytotoxicity, MTT assay; format: cell-based, human; settings: for IC50: HeLa; for Toxicity toward cancer cells compared to that toward CCD-19Lu cells, HeLa: IC50 of CCD-19Lu cells / IC50 of HeLa; for Toxicity toward cancer cells compared to that toward MIHA cells, HeLa: IC50 of MIHA cells / IC50 of HeLa; for Toxicity toward cancer cells compared to that toward NCM460 cells, HeLa: IC50 of NCM460 cells / IC50 of HeLa
Method: as §1, §2, §3, §4

[11] = Transmission electron microscopy of nanostructures; format: physicochemical; settings: self-assembled in PBS
Description: On the other hand, the almost neutral zeta potentials of the nanostructures of 1 and 2 validated the presence of PEG pendant in the shell of the nanostructures. The identity of gold species in the core of the nanostructures was supported by the good contrast of the core in the TEM images (Fig. 1c and S3a ^†) and energy-dispersive X-ray (EDX) spectra (Fig. 1f).
The gold content in NC1 was confirmed by EDX (Fig. 1g).

[12] = MTT assay, 72 h incubation, read-out: IC50
[13] = 72 h, read-out: Total dose at IC50

Row | Compound | Toxicity toward cancer cells compared to that toward CCD-19Lu cells, NCI-H460 [1] | Toxicity toward cancer cells compared to that toward MIHA cells, NCI-H460 [1] | Toxicity toward cancer cells compared to that toward NCM460 cells, NCI-H460 [1] | IC50 [1] [nM] | IC50 [3] [nM] | IC50 [4] [nM] | Toxicity toward cancer cells compared to that toward CCD-19Lu cells, HCT-116 [4] | Toxicity toward cancer cells compared to that toward MIHA cells, HCT-116 [4] | Toxicity toward cancer cells compared to that toward NCM460 cells, HCT-116 [4] | IC50 [5] [nM] | IC50 [6, 12] [nM] | Resistance found in A2780adr [6] | Toxicity toward cancer cells compared to that toward CCD-19Lu cells, A2780adr [6] | Toxicity toward cancer cells compared to that toward MIHA cells, A2780adr [6] | Toxicity toward cancer cells compared to that toward NCM460 cells, A2780adr [6] | IC50 [7] [nM] | Toxicity toward cancer cells compared to that toward CCD-19Lu cells, A2780 [7] | Toxicity toward cancer cells compared to that toward NCM460 cells, A2780 [7] | IC50 [8] [nM] | Resistance found in A2780cis [8] | other results
1 | COC(=O)c1ccc(C2=C3C=CC(=N3)C(c3ccccc3)=c3ccc4[n]3[Au+][n]3c(ccc32)C(c2ccccc2)=C2C=CC(=N2)C=4c2ccccc2)cc1.[Cl-] [Compound 3, [Au(TPP–COOCH3)]^+] | 6.6 | 7.0 | 1.3 | 110 ± 10 | 130 ± 10 | 90 ± 10 | 8.1 | 7.7 | 1.4 | 730 ± 40 | 650 ± 60 | 3.23 | 1.1 | 1.1 | 0.2 | 230 ± 20 | 3.2 | 0.7 | 190 ± 30 | 1.0 | hydrolysis / release of [Au(TPP–COOH)]+ in cells [2]: hydrolysis of the ester bond was also observed; Toxicity toward cancer cells compared to that toward CCD-19Lu cells, A2780cis [8]: 3.8; Toxicity toward cancer cells compared to that toward NCM460 cells, A2780cis [8]: 0.7; IC50 [9, 12]: 740 ± 90 nM; IC50 [10, 12]: 820 ± 120 nM; Toxicity toward cancer cells compared to that toward CCD-19Lu cells, HeLa [10]: 0.9; Toxicity toward cancer cells compared to that toward MIHA cells, HeLa [10]: 0.9; Toxicity toward cancer cells compared to that toward NCM460 cells, HeLa [10]: 0.2
2 | [Au(TPP–COO–PEG5000–OCH3)]Cl [Compound 1] | 17.9 | 17.1 | 19.3 | 850 ± 70 | 16400 ± 2450 | 390 ± 30 | 39.0 | 37.2 | 42.1 | 15200 ± 1930 | 1510 ± 400 | 2.94 | 10.1 | 9.1 | 10.9 | 510 ± 90 | 29.8 | 32.2 | 640 ± 30 | 1.27 | hydrolysis / release of [Au(TPP–COOH)]+ in cells [2]: hydrolysis of the ester bond of 1 in HCT116 cells to form [Au(TPP–COOH)]^+; diameter of nanostructures (TEM) [11]: ca. 120 nm; IC50 ([6]; 72 h, read-out: 1 at IC50): 1510 nM; IC50 [6, 13]: 1510 nM; Toxicity toward cancer cells compared to that toward MIHA cells, A2780 [7]: 28.4; Toxicity toward cancer cells compared to that toward CCD-19Lu cells, A2780cis [8]: 23.8; Toxicity toward cancer cells compared to that toward MIHA cells, A2780cis ([8]; IC50 of MIHA cells / IC50 of A2780cis): 22.7; Toxicity toward cancer cells compared to that toward NCM460 cells, A2780cis [8]: 25.6; IC50 ([9]; 72 h, read-out: 1 at IC50): 14500 nM; IC50 [9, 13]: 14500 nM; IC50 [9, 12]: 14500 ± 2550 nM; IC50 ([10]; 72 h, read-out: 1 at IC50): 1910 nM; IC50 [10, 13]: 1910 nM; IC50 [10, 12]: 1910 ± 480 nM; Toxicity toward cancer cells compared to that toward CCD-19Lu cells, HeLa [10]: 8.0; Toxicity toward cancer cells compared to that toward MIHA cells, HeLa [10]: 7.6; Toxicity toward cancer cells compared to that toward NCM460 cells, HeLa [10]: 8.6
3 | C1=Cc2nc1c(-c1ccccc1)c1ccc([n-]1)c(-c1ccccc1)c1nc(c(-c3ccccc3)c3ccc([n-]3)c2-c2ccccc2)C=C1.[Au+3].[Cl-] [Au1a, [Au(TPP)]Cl, reference compound] | 1.0 | 1.7 | 0.3 | 230 ± 10 | 70 ± 10 | 90 ± 20 | 2.6 | 4.4 | 0.8 | 230 ± 40 | 1130 ± 150 | 9.09 | 0.2 | 0.4 | 0.06 | 120 ± 20 | 1.9 | 0.6 | 180 ± 10 | 1.49 | Toxicity toward cancer cells compared to that toward MIHA cells, A2780 [7]: 3.3; Toxicity toward cancer cells compared to that toward CCD-19Lu cells, A2780cis [8]: 1.3; Toxicity toward cancer cells compared to that toward NCM460 cells, A2780cis [8]: 0.4; IC50 [9, 12]: 400 ± 70 nM; IC50 [10, 12]: 660 ± 40 nM; Toxicity toward cancer cells compared to that toward CCD-19Lu cells, HeLa [10]: 0.3; Toxicity toward cancer cells compared to that toward MIHA cells, HeLa [10]: 0.6; Toxicity toward cancer cells compared to that toward NCM460 cells, HeLa [10]: 0.1
